In patent publication US20130203790A1, “SULFUR-CONTAINING COMPOUNDS AS ANTI-PROLIFERATIVE AGENTS” (221076 ONTARIO INC., priority 2011, published 2013):

What was measured:
[1] = test system: platelets in platelet rich plasma (ADP, collagen and TRAP agonists); assay: Platelet inhibition assay in platelet rich plasma (light transmission aggregometry, Chrono-Log System); type: cell-based, human; conditions: for inhibitory activity observed in PRP: any agonist tested (ADP, collagen, TRAP), compound 10, 25, 50 and 100 μM
Procedure: (§1) Platelet function studies were performed simultaneously in both whole blood (using whole blood impedance platelet aggregometry with a Multiplate System) and platelet rich plasma (light transmission aggregometry with a Chrono-Log System). Blood was collected from healthy individuals into vacutainers containing 3.2% (w/v) citrate and was used within 3 hours of collection. Platelet rich plasma (“PRP”) was prepared by centrifugation at 170 g for 15 minutes, and the platelet count measured and adjusted to 250×109/L for use in the light transmission aggregometry studies.
(§2) Each compound was tested at final concentrations of 10, 25, 50 and 100 μM. For each test, the compound was diluted 1/100 into the PRP or whole blood to obtain the final concentrations listed. The PRP or whole blood sample was allowed to stir in the aggregometer for 3 minutes prior to agonist addition. One compound was tested each day.
(§3) As a positive control to verify the sensitivity to inhibition of thrombin receptor agonist peptide (TRAP)-mediated aggregation, TRAP-induced aggregations were also done in the presence of eptifibatide, a glycoprotein IIb/IIIa inhibitor (final concentration of 77 μg/mL in PRP and 65 μg/mL in whole blood).
(§4) Materials used included: • The four channel light transmission aggregometer instrument used for the platelet rich plasma studies was from Chrono-Log Corporation. • The ADP and collagen agonists used for platelet rich plasma studies were from Chrono-Log Corporation. • The four channel Multiplate whole blood impedance platelet aggregometer (IPA) was from DiaPharma Group. • The ADP and collagen agonists used for the whole blood studies were provided by DiaPharma Group. The TRAP agonist used in both the whole blood and PRP studies was also obtained from DiaPharma Group.

[2] = test system: platelets in whole blood (ADP, collagen and TRAP agonists); assay: Platelet inhibition assay in whole blood (impedance platelet aggregometry, Multiplate System); type: cell-based, human; conditions: for dose dependence of the response in whole blood / reduction in response to agonists in whole blood (anti-platelet effect): all agonists; for dose dependence of the response in whole blood: 10-100 μM; for reduction in response to agonists in whole blood (anti-platelet effect): compound 10-100 μM
Procedure: as §1, §2, §3, §4

[3] = target: T1, thrombin (thrombin-mediated conversion of fibrinogen to fibrin) (Homo sapiens, UniProt P00734); assay: Coagulation assay, microtiter plate turbidity (clot formation, thrombin clot time); type: biochemical
T1 construct: purchased Enzyme Research Laboratories
Procedure: Coagulation and fibrinolysis were studied simultaneously in a 96-well microtiter plate-based assay system. Varying concentrations of drug in 50 μl buffer or an equivalent volume of saline were added to the wells. To this was added 100 μl of 6 μM fibrinogen, 1 μM Glu-plasminogen and 4 mM CaCl2. Reactions were initiated by addition of 50 μl of buffer containing 2 nM t-PA and 20 nM thrombin. […] […] Plates were incubated at 23° C. for 1 h with constant shaking and turbidity was monitored continuously at 405 nm. Clot times and lysis times were determined using instrument soft wave as the times to half maximal increase and decrease in turbidity, respectively. Data are expressed as the mean±SEM of three experiments, each done in triplicate.

[4] = target: T2, t-PA (degradation of fibrin by tissue plasminogen activator) (Homo sapiens, UniProt P00750); assay: Fibrinolysis assay, microtiter plate turbidity (clot lysis time); type: biochemical; conditions: 500 nM Glu-plasminogen
T2 construct: purchased Genentech
T2 sequence (P00750 36-562): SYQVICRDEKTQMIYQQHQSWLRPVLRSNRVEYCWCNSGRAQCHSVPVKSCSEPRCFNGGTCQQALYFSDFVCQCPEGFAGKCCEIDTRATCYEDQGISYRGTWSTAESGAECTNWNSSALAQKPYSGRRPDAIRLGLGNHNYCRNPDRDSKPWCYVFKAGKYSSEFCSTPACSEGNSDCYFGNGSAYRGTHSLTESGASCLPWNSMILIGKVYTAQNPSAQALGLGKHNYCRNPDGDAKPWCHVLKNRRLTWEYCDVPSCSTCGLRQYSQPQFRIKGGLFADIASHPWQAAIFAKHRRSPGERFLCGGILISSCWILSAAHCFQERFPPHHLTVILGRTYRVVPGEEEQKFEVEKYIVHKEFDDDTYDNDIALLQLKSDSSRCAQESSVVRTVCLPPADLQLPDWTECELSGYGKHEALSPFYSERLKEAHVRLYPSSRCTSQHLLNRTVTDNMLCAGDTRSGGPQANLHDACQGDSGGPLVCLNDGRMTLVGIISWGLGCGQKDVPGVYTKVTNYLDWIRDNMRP
Procedure: Coagulation and fibrinolysis were studied simultaneously in a 96-well microtiter plate-based assay system. Varying concentrations of drug in 50 μl buffer or an equivalent volume of saline were added to the wells. To this was added 100 μl of 6 μM fibrinogen, 1 μM Glu-plasminogen and 4 mM CaCl2. Reactions were initiated by addition of 50 μl of buffer containing 2 nM t-PA and 20 nM thrombin. Final concentrations of reagents in the wells were 3 μM fibrinogen, 500 nM Glu-plasminogen, 2 mM CaCl2, […], 5 nM thrombin and compounds of Formulas (II), (Ill), (IV) or (V) (0-400 μM). As positive controls, hirudin or D-Phe-Pro-Arg chloromethylketone (PPACK) was used in place of the subject compounds. Plates were incubated at 23° C. for 1 h with constant shaking and turbidity was monitored continuously at 405 nm. Clot times and lysis times were determined using instrument soft wave as the times to half maximal increase and decrease in turbidity, respectively. Data are expressed as the mean±SEM of three experiments, each done in triplicate.

[5] = tested at 0-100 nM, 5 nM thrombin

Row | effect on clot lysis times [4] | Molecule | inhibitory activity observed in PRP [1] | dose dependence of the response in whole blood [2] | reduction in response to agonists in whole blood (anti-platelet effect) [2] | further results
1 |  | CSSc1ccccn1 [2-methyldisulfanyl-pyridine (III), 2-methyldisulfanyl-pyridine] | no inhibitory activity | does not appear to be dose dependent |  | reduction in response to all agonists in whole blood ([2]; not dose dependent (10-100 μM)): ~25%
2 |  | CSSc1ccncc1 [4-methyldisulfanyl-pyridine (II), 4-methyldisulfanyl-pyridine] | no inhibitory activity | does not appear to be dose dependent | reduction in response to all agonists | 
3 |  | 2-methyldisulfanyl-pyrimidine [2-methyldisulfanyl-pyrimidine (V)] |  | positive dose dependent inhibition |  | inhibitory activity observed in PRP at highest concentration ([1]; all agonists, highest concentration tested (100 μM)): surprising inhibitory activity; reduction of platelet response to all agonists in whole blood ([2]; 100 μM): approximately 50%
4 |  | CSSc1ccc(N)cc1 [4-methyldisulfanyl-phenylamine (IV), 4-methyldisulfanyl-phenylamine] | no inhibitory activity | does not appear to be dose dependent | Some reduction in response to all agonists | 
5 | lysis times were shortened | hirudin |  |  |  | effect on clot formation and lysis profiles ([3]; compounds of the invention up to 400 μM, hirudin and PPACK as positive controls, 23° C., turbidity at 405 nm): inhibited clot formation and lysis; concentration causing complete inhibition of clotting [3, 5]: 25 nM; lowest concentration with measurable effect on clotting [3, 5]: 6.25 nM
6 | lysis times were shortened | D-Phe-Pro-Arg chloromethylketone [PPACK] |  |  |  | 
